Data taken from patent publication US20050209278A1, “Piperidinyl- and piperazinyl-sulfonylmethyl hydroxamic acids and their use as protease inhibitors” (priority 2002, published 2005).

Experiments:
Type in all cases: biochemical
MMP-13 = target: T1, MMP-13 (Homo sapiens, UniProt P45452); assay: MMP-13 inhibition (in vitro Ki); details: Table 9; read-out: MMP-13 Ki (IC-50)
T1 construct: made in house; host or cells: baculovirus / insect cells

MMP-1 = target: T2, MMP-1 (Homo sapiens, UniProt P03956); assay: MMP-1 inhibition (in vitro Ki); details: Table 9; read-out: MMP-1 Ki (IC-50)
T2 construct: made in house; host or cells: MMP-1-transfected HT-1080 cells (spent media)
T2 sequence (P03956 100-469): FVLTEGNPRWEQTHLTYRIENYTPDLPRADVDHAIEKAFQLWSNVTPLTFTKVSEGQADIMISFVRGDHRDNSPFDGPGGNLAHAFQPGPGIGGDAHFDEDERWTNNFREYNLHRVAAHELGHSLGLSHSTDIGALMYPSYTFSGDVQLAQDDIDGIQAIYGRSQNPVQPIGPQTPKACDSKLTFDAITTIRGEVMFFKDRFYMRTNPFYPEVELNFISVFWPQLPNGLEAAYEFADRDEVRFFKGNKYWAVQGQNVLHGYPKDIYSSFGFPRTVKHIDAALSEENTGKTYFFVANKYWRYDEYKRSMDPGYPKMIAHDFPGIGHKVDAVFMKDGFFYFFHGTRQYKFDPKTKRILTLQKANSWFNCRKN

MMP-14 = target: T3, MMP-14 (Homo sapiens, UniProt P50281); assay: MMP-14 inhibition (in vitro Ki); details: Table 9; read-out: MMP-14 Ki (IC-50)
T3 construct: The catalytic domain enzyme was expressed in E. coli inclusion bodies, solubilized in urea; made in house

MMP-2 = target: T4, MMP-2 (Homo sapiens, UniProt P08253); assay: MMP-2 inhibition (in vitro Ki); details: Table 9; read-out: MMP-2 Ki (IC-50)
T4 construct: made in house; host or cells: MMP-2-transfected p2AHT2 cells
T4 sequence (P08253 110-660): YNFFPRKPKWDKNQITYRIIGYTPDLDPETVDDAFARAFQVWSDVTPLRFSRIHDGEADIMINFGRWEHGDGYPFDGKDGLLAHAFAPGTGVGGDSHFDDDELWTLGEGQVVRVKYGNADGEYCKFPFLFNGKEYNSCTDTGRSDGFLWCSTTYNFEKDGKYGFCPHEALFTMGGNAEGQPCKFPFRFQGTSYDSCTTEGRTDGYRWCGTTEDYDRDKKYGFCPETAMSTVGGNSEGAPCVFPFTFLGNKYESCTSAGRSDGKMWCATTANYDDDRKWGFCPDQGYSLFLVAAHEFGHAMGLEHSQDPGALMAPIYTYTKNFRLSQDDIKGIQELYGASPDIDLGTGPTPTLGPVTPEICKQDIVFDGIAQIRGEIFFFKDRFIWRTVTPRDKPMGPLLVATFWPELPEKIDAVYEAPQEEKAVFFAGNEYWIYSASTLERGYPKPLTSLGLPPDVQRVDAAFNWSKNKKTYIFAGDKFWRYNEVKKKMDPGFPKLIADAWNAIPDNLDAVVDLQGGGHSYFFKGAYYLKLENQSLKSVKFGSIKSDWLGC

MMP-9 = target: T5, MMP-9 (Homo sapiens, UniProt P14780); assay: MMP-9 inhibition (in vitro Ki); details: Table 9; read-out: MMP-9 Ki (IC-50)
T5 construct: made in house; host or cells: MMP-9-transfected HT1080 cells (spent media)
T5 sequence (P14780 107-707 limits assumed): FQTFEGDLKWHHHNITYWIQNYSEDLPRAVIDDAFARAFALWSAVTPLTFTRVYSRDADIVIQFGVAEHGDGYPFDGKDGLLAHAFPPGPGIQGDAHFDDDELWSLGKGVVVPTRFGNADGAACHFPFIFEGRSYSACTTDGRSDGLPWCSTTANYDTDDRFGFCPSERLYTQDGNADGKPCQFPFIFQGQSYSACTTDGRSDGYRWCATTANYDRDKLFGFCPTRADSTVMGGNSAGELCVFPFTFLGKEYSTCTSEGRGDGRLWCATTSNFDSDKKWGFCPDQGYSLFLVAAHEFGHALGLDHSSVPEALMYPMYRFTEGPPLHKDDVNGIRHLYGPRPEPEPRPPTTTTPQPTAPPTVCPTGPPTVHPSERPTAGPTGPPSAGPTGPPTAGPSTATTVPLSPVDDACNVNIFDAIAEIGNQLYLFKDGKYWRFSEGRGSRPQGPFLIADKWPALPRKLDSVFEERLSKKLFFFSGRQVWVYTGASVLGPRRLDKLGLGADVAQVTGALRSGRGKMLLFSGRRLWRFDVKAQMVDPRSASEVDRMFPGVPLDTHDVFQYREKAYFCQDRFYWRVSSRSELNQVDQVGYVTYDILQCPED

CCS(=O)(=O)c1ccc(N2CCN(S(=O)(=O)C3(C(=O)NO)CCOCC3)CC2)cc1 [Example A164]
Ki (MMP-13): 42.2 nM
Ki (MMP-1): > 10000 nM
Ki (MMP-14): > 10000 nM
Ki (MMP-2): 63 nM
Ki (MMP-9): 2970 nM

O=C(NO)C1(S(=O)(=O)N2CCC(c3ccc(CCC(F)(F)C(F)(F)F)cn3)CC2)CCN(c2cccnc2)CC1 [Example A165]
Ki (MMP-13): 0.647 nM
Ki (MMP-1): > 10000 nM
Ki (MMP-14): 7210 nM
Ki (MMP-2): 1.67 nM
Ki (MMP-9): 0.979 nM

COCCCc1ccc(C2CCN(S(=O)(=O)C3(C(=O)NO)CCOCC3)CC2)nc1 [Example A166]
Ki (MMP-13): 1.03 nM
Ki (MMP-1): > 10000 nM
Ki (MMP-14): 5060 nM
Ki (MMP-2): 1.93 nM
Ki (MMP-9): 1.77 nM

O=C(NO)C1(S(=O)(=O)N2CCC(c3ccc(CCC(F)(F)C(F)(F)F)cn3)CC2)CCN(c2ccccc2)CC1 [Example A167]
Ki (MMP-13): 1.54 nM
Ki (MMP-1): > 10000 nM
Ki (MMP-14): > 10000 nM
Ki (MMP-2): 3.04 nM
Ki (MMP-9): 2.21 nM

CC(F)(F)COc1ccc(C2CCN(S(=O)(=O)C3(C(=O)NO)CCOCC3)CC2)nc1 [Example A168]
Ki (MMP-13): 1.72 nM
Ki (MMP-1): 2290 nM
Ki (MMP-14): 8570 nM
Ki (MMP-2): 1.7 nM
Ki (MMP-9): 1.5 nM

C/C(COc1ccc(C2CCN(S(=O)(=O)C3(C(=O)NO)CCOCC3)CC2)nc1)=N/O [Example A169]
Ki (MMP-13): 4.53 nM
Ki (MMP-1): 5370 nM
Ki (MMP-14): 9300 nM
Ki (MMP-2): 3.5 nM
Ki (MMP-9): 10.2 nM

O=C(NO)C1(S(=O)(=O)N2CCC(c3ccc(CCC(F)(F)C(F)(F)F)cn3)CC2)CCNCC1 [Example A170]
Ki (MMP-13): 1.55 nM
Ki (MMP-1): > 10000 nM
Ki (MMP-14): > 10000 nM
Ki (MMP-2): 4.21 nM
Ki (MMP-9): 4.01 nM

COCC#Cc1ccc(C2CCN(S(=O)(=O)C3(C(=O)NO)CCOCC3)CC2)nc1 [Example A171]
Ki (MMP-13): 0.31 nM
Ki (MMP-1): 4180 nM
Ki (MMP-14): 604 nM
Ki (MMP-2): 0.42 nM
Ki (MMP-9): 0.54 nM

O=C(NO)C1(S(=O)(=O)N2CCC(c3ccc(OCC4CC4)cn3)CC2)CCOCC1 [Example A172]
Ki (MMP-13): 1.24 nM
Ki (MMP-1): 4070 nM
Ki (MMP-14): 3620 nM
Ki (MMP-2): 1.31 nM
Ki (MMP-9): 0.36 nM

O=C(NO)C1(S(=O)(=O)N2CCC(c3ccc(COCC(F)(F)F)cn3)CC2)CCOCC1 [Example A173]
Ki (MMP-13): 1.91 nM
Ki (MMP-1): > 10000 nM
Ki (MMP-14): > 10000 nM
Ki (MMP-2): 7.59 nM
Ki (MMP-9): 1.84 nM

O=C(NO)C1(S(=O)(=O)N2CCC(c3ccc(CCC(F)(F)C(F)(F)F)cn3)CC2)CCN(Cc2ccccc2)CC1 [Example A174]
Ki (MMP-13): 0.52 nM
Ki (MMP-1): > 10000 nM
Ki (MMP-14): 6520 nM
Ki (MMP-2): 1.31 nM
Ki (MMP-9): 0.73 nM

O=C(NO)C1(S(=O)(=O)N2CCN(c3ccc(-c4nnn(CC5CC5)n4)cc3)CC2)CCOCC1 [Example A175]
Ki (MMP-13): 0.09 nM
Ki (MMP-1): 854 nM
Ki (MMP-14): 591 nM
Ki (MMP-2): 0.07 nM
Ki (MMP-9): 1.37 nM

CCc1nc(-c2ccc(N3CCN(S(=O)(=O)C4(C(=O)NO)CCOCC4)CC3)cc2)no1 [Example A176]
Ki (MMP-13): 0.15 nM
Ki (MMP-1): 1710 nM
Ki (MMP-14): 184 nM
Ki (MMP-2): 0.08 nM
Ki (MMP-9): 0.81 nM

COCc1ccc(C2CCN(S(=O)(=O)C3(C(=O)NO)CCOCC3)CC2)nc1 [Example A177]
Ki (MMP-13): 6.81 nM
Ki (MMP-1): > 10000 nM
Ki (MMP-14): 3360 nM
Ki (MMP-2): 3.83 nM
Ki (MMP-9): 0.88 nM

O=C(NO)C1(S(=O)(=O)N2CCC(c3ccc(CCC(F)(F)C(F)(F)F)cn3)CC2)CCN(c2ncccn2)CC1 [Example A178]
Ki (MMP-13): 0.437 nM
Ki (MMP-1): > 10000 nM
Ki (MMP-14): 1950 nM
Ki (MMP-2): 0.881 nM
Ki (MMP-9): 0.596 nM

CCOCc1ccc(C2CCN(S(=O)(=O)C3(C(=O)NO)CCOCC3)CC2)nc1 [Example A179]
Ki (MMP-13): 1.9 nM
Ki (MMP-1): > 10000 nM
Ki (MMP-14): 4280 nM
Ki (MMP-2): 2.51 nM
Ki (MMP-9): 0.49 nM

N#Cc1ccc(N2CCN(S(=O)(=O)C3(C(=O)NO)CCOCC3)CC2)cc1F [Example A180]
Ki (MMP-13): 2.1 nM
Ki (MMP-1): 8890 nM
Ki (MMP-14): 1300 nM
Ki (MMP-2): 2.35 nM
Ki (MMP-9): 96.1 nM

CCN1CCC(C(=O)NO)(S(=O)(=O)N2CCC(c3ccc(CCC(F)(F)C(F)(F)F)cn3)CC2)CC1 [Example A181]
Ki (MMP-13): 0.61 nM
Ki (MMP-1): > 10000 nM
Ki (MMP-14): > 10000 nM
Ki (MMP-2): 2.36 nM
Ki (MMP-9): 1.33 nM

COCCN1CCC(C(=O)NO)(S(=O)(=O)N2CCC(c3ccc(CCC(F)(F)C(F)(F)F)cn3)CC2)CC1 [Example A182]
Ki (MMP-13): 0.3 nM
Ki (MMP-1): > 10000 nM
Ki (MMP-14): 5890 nM
Ki (MMP-2): 0.93 nM
Ki (MMP-9): 0.39 nM

O=C(NO)C1(S(=O)(=O)N2CCN(c3ccc(CCCC(F)(F)F)cc3)CC2)CCN(CC(F)(F)F)CC1 [Example A183]
Ki (MMP-13): 1.07 nM
Ki (MMP-1): > 10000 nM
Ki (MMP-14): > 10000 nM
Ki (MMP-2): 2.06 nM
Ki (MMP-9): 307 nM

O=C(NO)C1(S(=O)(=O)N2CCN(c3ccc(CCC(F)(F)F)cn3)CC2)CCOCC1 [Example A184]
Ki (MMP-13): 0.41 nM
Ki (MMP-1): 7050 nM
Ki (MMP-14): 985 nM
Ki (MMP-2): 0.38 nM
Ki (MMP-9): 0.52 nM

O=C(NO)C1(S(=O)(=O)N2CCC(CCc3ccccc3)CC2)CCOCC1 [Example A185]
Ki (MMP-13): 0.95 nM
Ki (MMP-1): 1720 nM
Ki (MMP-14): 42.7 nM
Ki (MMP-2): 1.1 nM
Ki (MMP-9): 1.69 nM

CCn1nnc(-c2ccc(N3CCN(S(=O)(=O)C4(C(=O)NO)CCOCC4)CC3)cc2)n1 [Example A186]
Ki (MMP-13): 0.21 nM
Ki (MMP-1): 924 nM
Ki (MMP-14): 421 nM
Ki (MMP-2): 0.23 nM
Ki (MMP-9): 0.55 nM

O=C(NO)C1(S(=O)(=O)N2CCN(c3ccc(-c4cccs4)cn3)CC2)CCOCC1 [Example A187]
Ki (MMP-13): 0.56 nM
Ki (MMP-1): 936 nM
Ki (MMP-14): 1240 nM
Ki (MMP-2): 0.54 nM
Ki (MMP-9): 2.14 nM

O=C(NO)C1(S(=O)(=O)N2CCC(c3ccc(-n4ccnc4)cn3)CC2)CCOCC1 [Example A188]
Ki (MMP-13): 3.89 nM
Ki (MMP-1): 3310 nM
Ki (MMP-14): 6200 nM
Ki (MMP-2): 7.61 nM
Ki (MMP-9): 54.7 nM

O=C(NO)C1(S(=O)(=O)N2CCN(c3ccc(CCC(F)(F)C(F)(F)F)cn3)CC2)CCOCC1 [Example A190]
Ki (MMP-13): 0.22 nM
Ki (MMP-1): > 10000 nM
Ki (MMP-14): 3350 nM
Ki (MMP-2): 0.39 nM
Ki (MMP-9): 1.09 nM

CSCCOc1ccc(C2CCN(S(=O)(=O)C3(C(=O)NO)CCOCC3)CC2)nc1 [Example A191]
Ki (MMP-13): 0.13 nM
Ki (MMP-1): 1710 nM
Ki (MMP-14): 470 nM
Ki (MMP-2): 0.31 nM
Ki (MMP-9): 0.27 nM

Cc1cnn(-c2ccc(C3CCN(S(=O)(=O)C4(C(=O)NO)CCOCC4)CC3)nc2)c1 [Example A193]
Ki (MMP-13): 2.09 nM
Ki (MMP-1): 4710 nM
Ki (MMP-14): 2820 nM
Ki (MMP-2): 4.7 nM
Ki (MMP-9): 8.24 nM

O=C(NO)C1(S(=O)(=O)N2CCC(c3ccc(-n4cccn4)cn3)CC2)CCOCC1 [Example A194]
Ki (MMP-13): 8.86 nM
Ki (MMP-1): > 10000 nM
Ki (MMP-14): 1700 nM
Ki (MMP-2): 8.71 nM
Ki (MMP-9): 12.6 nM

O=C(NO)C1(S(=O)(=O)N2CCN(c3ccc(-c4cccnc4)c(F)c3)CC2)CCOCC1 [Example A195]
Ki (MMP-13): 0.34 nM
Ki (MMP-1): 1570 nM
Ki (MMP-14): 2430 nM
Ki (MMP-2): 0.18 nM
Ki (MMP-9): 6.81 nM

CCCCc1cnc(C2CCN(S(=O)(=O)C3(C(=O)NO)CCOCC3)CC2)nc1 [Example A196]
Ki (MMP-13): 21.8 nM
Ki (MMP-1): > 10000 nM
Ki (MMP-14): > 10000 nM
Ki (MMP-2): 70 nM
Ki (MMP-9): 2.02 nM

O=C(NO)C1(S(=O)(=O)N2CCN(c3ccc(-c4nnn(CC(F)(F)F)n4)cc3)CC2)CCOCC1 [Example A199]
Ki (MMP-13): 0.04 nM
Ki (MMP-1): 287 nM
Ki (MMP-14): 287 nM
Ki (MMP-2): 0.06 nM
Ki (MMP-9): 0.84 nM
